Reference: patent publication US20200267980A1, “Herbicidally Active Pyridyl-/Pyrimidyl-Pyrimidine Derivatives” (Syngenta Participations AG, priority 2017, published 2020)

Assays:
Assay type in all cases: in vivo
Lolium perenne (LOLPE) [1] = test: Post-emergence herbicidal activity, glasshouse pot test; set-up: key: 5=total damage to plant; 0=no damage to plant; conditions: 1000 g/ha, post-emergence spray after 8 days cultivation, evaluated after 13 days, damage score 0-5
Protocol: (§1) Seeds of a variety of test species were sown in standard soil in pots: Triticum aestivium (TRZAW), Avena fatua (AVEFA), Alopecurus myosuroides (ALOMY), Echinochloa crus-galli (ECHCG), Lolium perenne (LOLPE), and Setaria faberi (SETFA). After 8 days cultivation (post-emergence) under controlled conditions in a glasshouse (at 24/16° C., day/night; 14 hours light; 65% humidity), the plants were sprayed with an aqueous spray solution derived from the formulation of the technical active ingredient in acetone/water (50:50) solution containing 0.5% Tween 20 (polyoxyethelyene sorbitan monolaurate, CAS RN 9005-64-5). The test plants were then grown in a glasshouse under controlled conditions (at 24/16° C., day/night; 14 hours light; 65% humidity) and watered twice daily. After 13 days, the test was evaluated (5=total damage to plant; 0=no damage to plant).

[2] = test system: Echinochloa crus-galli (ECHCG); test: as above; set-up: key: 5=total damage to plant; 0=no damage to plant; conditions: 1000 g/ha, post-emergence spray after 8 days cultivation, evaluated after 13 days, damage score 0-5
Protocol: as §1

[3] = test system: Triticum aestivium (TRZAW); test: as above; set-up: key: 5=total damage to plant; 0=no damage to plant; conditions: 1000 g/ha, post-emergence spray after 8 days cultivation, evaluated after 13 days, damage score 0-5
Protocol: as §1

Setaria faberi (SETFA) [4] = test: as above; set-up: key: 5=total damage to plant; 0=no damage to plant; conditions: 1000 g/ha, post-emergence spray after 8 days cultivation, evaluated after 13 days, damage score 0-5
Protocol: as §1

[5] = test system: Alopecurus myosuroides (ALOMY); test: as above; set-up: key: 5=total damage to plant; 0=no damage to plant; conditions: 1000 g/ha, post-emergence spray after 8 days cultivation, evaluated after 13 days, damage score 0-5
Protocol: as §1

Lolium perenne (LOLPE) [6] = test: Pre-emergence herbicidal activity, glasshouse pot test; set-up: key: 5=total damage to plant; 0=no damage to plant; conditions: 1000 g/ha, pre-emergence spray, evaluated after 13 days, damage score 0-5
Protocol: as §1, with “After” for “After 8 days”, “for one day (pre-emergence)” for “(post-emergence)”

Avena fatua (AVEFA) [7] = test: as above; set-up: key: 5=total damage to plant; 0=no damage to plant; conditions: 1000 g/ha, pre-emergence spray, evaluated after 13 days, damage score 0-5
Protocol: as §1, with “After” for “After 8 days”, “for one day (pre-emergence)” for “(post-emergence)”

[8] = test system: Echinochloa crus-galli (ECHCG); test: as above; set-up: key: 5=total damage to plant; 0=no damage to plant; conditions: 1000 g/ha, pre-emergence spray, evaluated after 13 days, damage score 0-5
Protocol: as §1, with “After” for “After 8 days”, “for one day (pre-emergence)” for “(post-emergence)”

[9] = test system: Triticum aestivium (TRZAW); test: as above; set-up: key: 5=total damage to plant; 0=no damage to plant; conditions: 1000 g/ha, pre-emergence spray, evaluated after 13 days, damage score 0-5
Protocol: as §1, with “After” for “After 8 days”, “for one day (pre-emergence)” for “(post-emergence)”

Setaria faberi (SETFA) [10] = test: as above; set-up: key: 5=total damage to plant; 0=no damage to plant; conditions: 1000 g/ha, pre-emergence spray, evaluated after 13 days, damage score 0-5
Protocol: as §1, with “After” for “After 8 days”, “for one day (pre-emergence)” for “(post-emergence)”

[11] = test system: Alopecurus myosuroides (ALOMY); test: as above; set-up: key: 5=total damage to plant; 0=no damage to plant; conditions: 1000 g/ha, pre-emergence spray, evaluated after 13 days, damage score 0-5
Protocol: as §1, with “After” for “After 8 days”, “for one day (pre-emergence)” for “(post-emergence)”

Avena fatua (AVEFA) [12] = test: Post-emergence herbicidal activity, glasshouse pot test; conditions: 1000 g/ha, post-emergence spray after 8 days cultivation, evaluated after 13 days, damage score 0-5
Protocol: as §1

SMILES | Control of weed species after post-emergence application, LOLPE (Lolium perenne (LOLPE) [1]) | Control of weed species after post-emergence application, ECHCG [2] | Control of weed species after post-emergence application, TRAZW [3] | Control of weed species after post-emergence application, SETFA (Setaria faberi (SETFA) [4]) | Control of weed species after post-emergence application, ALOMY [5] | Control of weed species after pre-emergence application, LOLPE (Lolium perenne (LOLPE) [6]) | Control of weed species after pre-emergence application, AVEFA (Avena fatua (AVEFA) [7]) | Control of weed species after pre-emergence application, ECHCG [8] | Control of weed species after pre-emergence application, TRAZW [9] | Control of weed species after pre-emergence application, SETFA (Setaria faberi (SETFA) [10]) | Control of weed species after pre-emergence application, ALOMY [11] | Control of weed species after post-emergence application, AVEFA (Avena fatua (AVEFA) [12])
O=C(CCC1CCCC1)Nc1cnc(-c2cncnc2)nc1C(F)(F)F [Compound F17] | 1 | 4 | 1 | 4 | 0 | 0 | 1 | 3 | 0 | 4 | 0 | 2
COCC(=O)Nc1cnc(-c2cncc(F)c2)nc1C(F)(F)F [Compound F3] | 2 | 4 | 1 | 4 | 0 | 1 | 2 | 3 | 0 | 3 | 0 | 4
Cc1ccc(C(=O)Nc2cnc(-c3cncc(F)c3)nc2C(F)(F)F)cc1 [Compound F25] | 1 | 5 | 0 | 4 | 0 | 0 | 0 | 3 | 0 | 4 | 0 | 2
CC(C)(C)C(=O)Nc1cnc(-c2cncc(F)c2)nc1C(F)(F)F [Compound F6] | 2 | 5 | 1 | 4 | 1 | 1 | 2 | 4 | 0 | 3 | 0 | 3
N#CCN(C(=O)C1CC1)c1cnc(-c2cncc(F)c2)nc1C(F)(F)F [Compound F30] | 2 | 4 | 1 | 5 | 1 | 2 | 2 | 3 | 1 | 4 | 0 | 2
O=C(Nc1cnc(-c2cncc(F)c2)nc1C(F)(F)F)c1cccs1 [Compound F9] | 2 | 4 | 1 | 4 | 0 | 1 | 1 | 2 | 0 | 4 | 0 | 2
O=C(Nc1cnc(-c2cncc(F)c2)nc1C(F)(F)F)C(Cl)Cl [Compound F8] | 2 | 4 | 1 | 5 | 1 | 1 | 1 | 4 | 1 | 4 | 0 | 2
CC(C)=CC(=O)Nc1cnc(-c2cncc(F)c2)nc1C(F)(F)F [Compound F24] | 1 | 5 | 1 | 4 | 1 | 1 | 1 | 2 | 1 | 5 | 0 | 3
COCCC(=O)Nc1cnc(-c2cncnc2)nc1C(F)(F)F [Compound F16] | 2 | 5 | 1 | 5 | 1 | 1 | 1 | 4 | 0 | 5 | 0 | 3
O=C(C1CC1)N(C(=O)C1CC1)c1cnc(-c2cncc(F)c2)nc1C(F)(F)F [Compound F21] | 2 | 3 | 1 | 5 | 1 | 0 | 0 | 1 | 0 | 4 | 0 | 3
